Experimental findings from patent publication US20260042755A1, “GPR6 INVERSE AGONISTS” (MapLight Therapeutics, Inc., priority 2022, published 2026) are described below.

In one assay the target is T1, GPR6 (Homo sapiens, UniProt P46095).
T1 construct: expressed in transfected cells; host or cells: CHO cells
Nature of the assay: GPR6 antagonist functional cAMP assay (LANCE Ultra cAMP TR-FRET, CHO cells stably expressing GPR6). The class given is cell-based. The essentials: (§1)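 cAMP quantified by TR-FRET immunoassay after 45 min compound treatment at 37° C of CHO cells stably expressing GPR3 or GPR6, in PDE-inhibitor (Ro 20-1724, 150 μM) buffer with 0.1% BSA. Data scaled between DMSO (0%) and reference compounds (100%); antagonist IC50 by 4-parameter logistic fit.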
In general terms: cAMP levels reflect the balance of adenylyl cyclase and phosphodiesterase activity.

A further assay has as its target T2, GPR3 (Homo sapiens, UniProt P46089).
T2 construct: expressed in transfected cells; host or cells: CHO cells
Nature of the assay: GPR3 antagonist functional cAMP assay (LANCE Ultra cAMP TR-FRET, CHO cells stably expressing GPR3). The class given is cell-based. The essentials:
as §1

[1] abbreviates: CHO cells stably expressing GPR6, cAMP assay (Example 24).
[2] abbreviates: CHO cells stably expressing GPR3, cAMP assay (Example 24).
[3] abbreviates: CHO cells stably expressing GPR6, cAMP assay.
The mark [4] stands for this setting: CHO cells stably expressing GPR3, cAMP assay.
[5] abbreviates: procedure as described in Example 24.

T2 sequence (P46089 whole entry, species assumed): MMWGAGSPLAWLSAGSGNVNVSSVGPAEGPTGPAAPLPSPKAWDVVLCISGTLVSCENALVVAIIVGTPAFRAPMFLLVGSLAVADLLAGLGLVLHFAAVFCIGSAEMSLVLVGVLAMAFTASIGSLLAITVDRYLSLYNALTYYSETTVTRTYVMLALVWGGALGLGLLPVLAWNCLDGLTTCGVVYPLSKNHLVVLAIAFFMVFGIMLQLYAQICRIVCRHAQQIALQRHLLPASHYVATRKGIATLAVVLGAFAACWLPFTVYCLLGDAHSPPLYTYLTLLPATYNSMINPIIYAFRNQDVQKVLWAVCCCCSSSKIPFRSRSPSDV
T1 sequence (P46095 whole entry): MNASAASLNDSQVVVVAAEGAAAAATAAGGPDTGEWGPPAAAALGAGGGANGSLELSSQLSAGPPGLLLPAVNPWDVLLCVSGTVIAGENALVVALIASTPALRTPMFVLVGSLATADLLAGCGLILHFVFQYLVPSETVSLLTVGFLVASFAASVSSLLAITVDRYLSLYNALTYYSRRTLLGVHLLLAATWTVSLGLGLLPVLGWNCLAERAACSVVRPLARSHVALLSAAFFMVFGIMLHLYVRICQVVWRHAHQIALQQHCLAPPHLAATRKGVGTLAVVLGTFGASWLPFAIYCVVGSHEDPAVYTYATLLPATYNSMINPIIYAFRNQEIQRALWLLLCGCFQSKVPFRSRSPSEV

For the compound `CS(=O)(=O)N1CCc2nc(N3CCC(Oc4ccc(F)cc4F)CC3)c(-c3cn[nH]c3)nc2C1` [Compound 70, 2-(4-(2,4-difluorophenoxy)piperidin-1-yl)-6-(methylsulfonyl)-3-(1H-pyrazol-4-yl)-5,6,7,8-tetrahydropyrido[3,4-b]pyrazine], the IC50 (as a rule, the point on the concentration scale where inhibition reaches its midpoint) was 0.1 to 1 µM on GPR6 (setting [1]) and 1 to 30 µM at GPR3 (setting [2]).
As for `CCn1cc(-c2nc3c(nc2N2CCC(Oc4ccc(F)cc4F)CC2)CCN(C(=O)N(C)C)C3)cn1` [Compound 300, 2-[4-(2,4-difluorophenoxy)piperidin-1-yl]-3-(1-ethyl-1H-pyrazol-4-yl)-N,N-dimethyl-5H,6H,7H,8H-pyrido[3,4-b]pyrazine-6-carboxamide], the IC50 on GPR6 (procedure of Example 24) is less than 0.1 µM; against GPR3 (procedure of Example 24), 1 to 30 µM.
As for `Cn1cc(-c2nc3cnccc3nc2N2CCN(Cc3ccc(F)cc3F)C[C@H]2CO)cn1` (single isomer, unassigned) [Compound 292], the values for the IC50 against GPR6 (procedure of Example 24) and on GPR3 (procedure of Example 24) were no less than 30 µM and 1 to 30 µM, respectively.
On to `CC(=O)N1CCc2nc(N3CCc4c(cnn4-c4ccc(F)cc4F)C3)c(-c3cnn(C)c3)nc2C1` [Compound 789, 1-{2-[1-(2,4-difluorophenyl)-4,5,6,7-tetrahydro-1H-1,2,5-triazainden-5-yl]-3-(1-methyl-4-pyrazolyl)-5,6,7,8-tetrahydro-1,4,6-triaza-6-naphthyl}-1-ethanone], for which the IC50 at GPR6 (procedure of Example 24) and against GPR3 (procedure of Example 24) was 1 to 30 µM each time.
On to `CC(C)(O)C(C)(O)c1cc2nc(-c3cnn(C(F)F)c3)c(N3CCN(Cc4ccc(F)cc4F)CC3)nc2cn1` (stereo not drawn) [Compound 633, 2-{2-[1-(difluoromethyl)-4-pyrazolyl]-3-{4-[(2,4-difluorophenyl)methyl]-1-piperazinyl}-1,4,6-triaza-7-naphthyl}-3-methyl-2,3-butanediol], for which the IC50 at GPR6 (procedure of Example 24) is less than 0.1 µM; against GPR3 (procedure of Example 24), 1 to 30 µM.
As to `CC(=O)N1CCc2nc(N3CCC(Oc4ccc(F)cc4F)CC3)c(C3CCN(S(C)(=O)=O)C3)nc2C1` (stereo not drawn) [Compound 543, 1-{2-[4-(2,4-difluorophenoxy)-1-piperidyl]-3-(1-mesyl-3-pyrrolidinyl)-5,6,7,8-tetrahydro-1,4,6-triaza-6-naphthyl}-1-ethanone], the IC50 at GPR6 (setting [3]) and at GPR3 (setting [4]) was 1 to 30 µM in each case.
Regarding `CC(C)(O)C(C)(O)c1cc2nc(N3CCN(Cc4ccc(F)cc4F)CC3)c(-c3cnn(C(F)F)c3)nc2cn1` (stereo not drawn) [Compound 657, 2-{3-[1-(difluoromethyl)-4-pyrazolyl]-2-{4-[(2,4-difluorophenyl)methyl]-1-piperazinyl}-1,4,6-triaza-7-naphthyl}-3-methyl-2,3-butanediol], the IC50 is 0.1 to 1 µM at GPR6 (procedure of Example 24) and 1 to 30 µM against GPR3 (procedure of Example 24).
`CNC(=O)c1cccc(-c2nc3c(nc2N2CCC(Oc4ccc(F)cc4F)CC2)CCN(C(C)=O)C3)n1` [Compound 132, 6-{6-acetyl-2-[4-(2,4-difluorophenoxy)piperidin-1-yl]-5H,6H,7H,8H-pyrido[3,4-b]pyrazin-3-yl}-N-methylpyridine-2-carboxamide]: the IC50 at GPR6 (setting [1]) and on GPR3 (setting [2]) was 1 to 30 µM each time.
With `CC(C)(O)[C@H](O)c1cc2nc(N3CCN(Cc4ccc(F)cc4F)CC3)c(-c3cnn(C(F)F)c3)nc2cn1` (single isomer, unassigned) [Compound 396], the results for the IC50 at GPR6 (setting [1]) and against GPR3 (setting [2]) were 0.1 to 1 µM and 1 to 30 µM, respectively.
For the compound `CC(C)(O)[C@H](O)c1cc2nc(N3CCC(Oc4ccc(F)cc4F)CC3)c(-c3cnn(CF)c3)nc2cn1` (single isomer, unassigned) [Compound 596], the 50% inhibitory concentration (IC50) against GPR6 (setting [3]) fell in the range of 0.1 to 1 µM; on GPR3 (setting [4]) it was 1 to 30 µM.
Take `CC(=O)N1CCc2nc(N3CCN(Cc4c(F)cc(F)cc4F)CC3)c(-c3cnn(C)c3)nc2C1` [Compound 343, 1-[3-(1-methyl-1H-pyrazol-4-yl)-2-{4-[(2,4,6-trifluorophenyl)methyl]piperazin-1-yl}-5H,6H,7H,8H-pyrido[3,4-b]pyrazin-6-yl]ethan-1-one]: the IC50 against GPR6 (procedure of Example 24) and against GPR3 (procedure of Example 24) was 1 to 30 µM each time.
Take `CC(C)(O)[C@@H](O)c1cc2nc(N3CCN(Cc4ccccc4F)CC3)c(-c3cnn(C4CC4)c3)nc2cn1` (single isomer, unassigned) [Compound 742]: the IC50 against GPR6 (procedure of Example 24) was in the range of 0.1 to 1 µM; on GPR3 (procedure of Example 24), 1 to 30 µM.
`COc1cc(F)c(OC2CCN(c3nc4c(nc3-c3cnn(C)c3)CN(C(C)=O)CC4)CC2)cc1Cl` [Compound 503, 1-{2-[4-(5-chloro-2-fluoro-4-methoxyphenoxy)-1-piperidyl]-3-(1-methyl-4-pyrazolyl)-5,6,7,8-tetrahydro-1,4,6-triaza-6-naphthyl}-1-ethanone]: the IC50 against GPR6 (setting [3]) and at GPR3 (setting [4]) was 1 to 30 µM each time.
On to `N#CCN1CCc2nc(N3CCC(Oc4ccc(F)cc4F)CC3)c(-c3cnn(C4CCCCO4)c3)nc2C1` (stereo not drawn) [Compound 118, 2-{2-[4-(2,4-difluorophenoxy)piperidin-1-yl]-3-[1-(oxan-2-yl)-1H-pyrazol-4-yl]-5H,6H,7H,8H-pyrido[3,4-b]pyrazin-6-yl}acetonitrile], for which the IC50 against GPR6 (setting [1]) and against GPR3 (setting [2]) was 1 to 30 µM in each case.
Consider `Cc1cncc2nc(-c3cnn(C)c3)c(N3CCC(Oc4ccc(F)cc4F)CC3)nc12` [Compound 480, 4-(2,4-difluorophenoxy)-1-[8-methyl-3-(1-methyl-1H-pyrazol-4-yl)pyrido[3,4-b]pyrazin-2-yl]piperidine], for which the results for the IC50 at GPR6 (setting [1]) and against GPR3 (setting [2]) were 0.1 to 1 µM and 1 to 30 µM, respectively.
For `CC(=O)N1CCc2nc(N3CCN(Cc4ccc[nH]c4=O)CC3)c(-c3cnn(C)c3)nc2C1` [Compound 531, 3-({4-[6-acetyl-3-(1-methyl-4-pyrazolyl)-5,6,7,8-tetrahydro-1,4,6-triaza-2-naphthyl]-1-piperazinyl}methyl)-2(1H)-pyridinone], the half-inhibitory concentration (IC50) against GPR6 (setting [3]) and against GPR3 (setting [4]) was no less than 30 µM each time.
`Cn1cc(-c2nc3cnc([C@H](O)C(C)(C)O)cc3nc2N2CCN(Cc3ccc(F)cc3F)CC2)cn1` (single isomer, unassigned) [Compound 262]: the IC50 against GPR6 (setting [1]) fell in the range of 0.1 to 1 µM; on GPR3 (setting [2]), 1 to 30 µM.
Turning to `CC(=O)N1CCc2nc(N3CCC(Oc4ccc(F)cc4F)CC3)c(C3CCS(=O)(=O)CC3)nc2C1` [Compound 218, 4-{6-acetyl-2-[4-(2,4-difluorophenoxy)piperidin-1-yl]-5H,6H,7H,8H-pyrido[3,4-b]pyrazin-3-yl}-1λ^6-thiane-1,1-dione], the IC50 against GPR6 (setting [1]) and on GPR3 (setting [2]) was 1 to 30 µM in each case.
As to `COc1ccc(-c2nc3c(nc2N2CCC(Oc4ccc(F)cc4F)CC2)CCN(C(C)=O)C3)nc1` [Compound 10], the IC50 against GPR6 (setting [5]) was 0.1 to 1 µM; at GPR3 (setting [5]), 1 to 30 µM.
Turning to `[2H]C([2H])([2H])n1cc(-c2nc3c(nc2N2CCC(Oc4ccc(F)cc4F)CC2)CCN(C(C)=O)C3)cn1` [Compound 405, 1-{2-[4-(2,4-difluorophenoxy)piperidin-1-yl]-3-[1-(2H3)methyl-1H-pyrazol-4-yl]-5H,6H,7H,8H-pyrido[3,4-b]pyrazin-6-yl}ethan-1-one], the results for the IC50 against GPR6 (setting [1]) and on GPR3 (setting [2]) were 0.1 to 1 µM and 1 to 30 µM, respectively.
In the same order, the values of `COc1ccc(C(=O)N2CCN(c3nc4c(nc3-c3cnn(C)c3)CN(C(C)=O)CC4)CC2)c(F)c1` [Compound 254, 1-{2-[4-(2-fluoro-4-methoxybenzoyl)piperazin-1-yl]-3-(1-methyl-1H-pyrazol-4-yl)-5H,6H,7H,8H-pyrido[3,4-b]pyrazin-6-yl}ethan-1-one] are 1 to 30 µM and 1 to 30 µM.
